# Assay results as given in patent US12337033B2, “Encapsulated glycolipid antigens for treatment of neoplastic diseases” (EnGeneIC Molecular Delivery Pty Ltd, priority 2019, dated 2025).
# Columns and labels:
# [1] = test system: JAWSII cells; experiment: αGC surface presentation through CD1d on JAWSII cells (anti-alpha GalCer:mCD1d staining, flow cytometry); format: cell-based, mouse; conditions: 8h-48h post-treatment, compared to minicells alone and untreated, free αGC 1000 ng/ml
# Protocol: Cells used: Mouse immature […] JAWSII (ATCC® CRL-11904™).
# Preparation Perfecta3D 96-Well Hanging Drop Plate: The upper and lower side tray reservoirs of the 3D hanging drop plates were filled with melted 1% agarose using a P1000 pipette (1 g agarose dissolve in 100 ml of water, dissolved in microwave and allowed to cool to ˜50° C.). The plates were allowed to dry and settle at room temperature for at least 30 min. The outside wells of the hanging drop plate were then filled with 50 μl of sterile cell culture media (without cells)/well.
# Treatment of JAWSII spheroids with EDVαGC: JAWSII cells were treated with 1000 ng/ml aGC (positive control); empty minicells and minicellsαGC compared to untreated cells and collected at 8h, 16h, 24h and 48h post-treatment (FIGS. 8A-8D).
# Dissociation of JAWSII cells into single-cell suspensions: JAWSII cells were grown as semi-suspension cultures in T25 or T75 flasks. The culture media was carefully collected into a sterile 50 ml tube by pipetting using a pipette-aid and the culture surface of the flask was washed 2× with 5 ml of sterile PBS, and collected in the same sterile 50 ml tube after each wash. […] To determine the cell number, 10 μl of the cell suspension was mixed with 10 μl of trypan blue solution and analyzed using an EVE automated cell counter. […]
# [2] = test system: many different tumor cell lines; experiment: Cytotoxicity assays against tumor cell lines; format: cell-based
structure (smiles),measurement,setting,value
"CCCCCCCCCCCCCCCCCCCCCCCCCC(=O)N[C@@H](CO[C@H]1O[C@H](CO)[C@H](O)[C@H](O)[C@H]1O)[C@H](O)[C@H](O)CCCCCCCCCCCCCC [free α-GC, α-galactosylceramide]",staining with anti-GalCer:mCD1d (α-GC presentation on the cell surface by CD1d),[1],clear shift
"COc1cccc2c1C(=O)c1c(O)c3c(c(O)c1C2=O)C[C@@](O)(C(=O)CO)C[C@@H]3OC1CC2C(OC3C(OC)OCCN23)C(C)O1 (stereo partly drawn) [PNU159682, 3′-deamino-3″,4′-anhydro-[2″(S)-methoxy-3″(R)-oxy-4″-morpholinyl] doxorubicin]",drug resistance in tumor cell lines,[2]; a number of different tumor cell lines,appears to overcome drug resistance
same,potency compared with a range of conventional chemotherapeutics,"[2]; cytotoxicity assays, many different tumor cell lines",much more potent
